Measurements from patent publication US20200054581A1, “APPLICATION OF TRPM7 INHIBITORS TO TREAT SLEEP APNEA AND HYPERTENSION IN OBESITY” (THE JOHNS HOPKINS UNIVERSITY, priority 2017, published 2020).
“Also recorded” adds a separate entry of the source. Like-named read-outs stand apart in the source and are kept apart here.

Tests used:
[1] = tested on: isolated CB-CSN preparations; assay: hypoxia-induced CSN activity in isolated superfused CB-CSN preparation; design: species or system C57B1/6J (WT) mice; details: for leptin-enhanced hypoxia-induced CSN activity: effect of nonspecific TRP channel antagonist; for hypoxia-induced CSN activity: effect of leptin
Excerpt: SKF and 2-APB data were pooled, *p<0.05.
Leptin and carotid body function CBs are major peripheral O2 sensors, which initiate chemosensory inputs in the CSN to the respiratory centers via nucleus solitarius to evoke acute hyperventilation, and the rostral ventrolateral medulla presympathetic neurons to stimulate SNS activity. CB plays critical roles in the development of hypertension during chronic intermittent hypoxia (CIH); and the sympatho-excitation and destabilization of breathing during heart failure. However, the connection between CB and the obesity-associated hypertension and respiratory instability has not been clearly established. […] The effect of leptin on isolated CB-CSN preparations from C57B1/6J (WT) mice was studied.

TRPM7 [2] = target: TRPM7 (Homo sapiens, UniProt Q96QT4); details: cited from earlier work
rat glomus cells = details: cited from earlier work
TRPM7 [3] = assay: Trpm7 mRNA level by qPCR in PC12^LEPRb cells; assay type: cell-based; details: 48 hr exposure
Experimental: (§1) FIG. 8A-8C illustrates exposure of leptin to Leprb-expressing PC12^LEPRb cells increased Trpm7 promoter activity and gene transcription. (A) PC12^LEPRb cells transfected with either pEZX-Luc-vector (empty, no insert) or pEZX-Luc-Trpm7 (promoter insert) were exposed to 1 ng/ml leptin for 48 hr prior to measurement of luciferase activity. B and C) Gene expression and promoter methylation of Trpm7 in cells exposed to leptin or 5-aza-dC for 48 hr. Trpm7 mRNA level was quantitated by qPCR. Methylation status of CpG sites in Trpm7 promoter were determined by bisulfite sequencing. A total of 40 CpG sites per clone and 6 individual clones for each treatment group were sequenced. Each row of circles represented an individual clone. Putative TF binding sites such as STAT3 and NFkB were shown in scale in Trpm7 promoter. TSS: transcription start site. Boxed regions highlight the CpG sites showing differential methylation in cells exposed to leptin or 5-aza-dC. (p<0.05). Values were mean±SD.
(§2) Leptin can regulate gene transcription by binding to ObRb to activate Janus kinase 2/signal transducers and activator of transcription 3 (JAK2/STAT3) as well as ERK1/2 and PI3K pathways (FIG. 7), which are known to regulate a wide variety of genes. To examine the possible regulation of Trpm7 transcription by leptin, we searched the Trpm7 promoter sequence for potential binding sites for transcription factors (TFs). […]

TRPM7 [4] = target: T1, TRPM7 (Rattus norvegicus, UniProt Q925B3); assay: non-selective cation (TRPM7) current, amphotericin-B perforated-patch recording in PC12^LEPRb cells; assay type: cell-based; details: for leptin-enhanced non-selective cation current / naltriben-induced increase of the current: effect of TRPM7 antagonist
T1 construct: PC12 cells are oxygen-sensitive, express high level of TRPM7; endogenous in cells; host or cells: PC12^LEPRb cells (PC12 transfected with leptin receptor LEPRb; TRPM7 itself not transfected)
Excerpt: FIG. 5A-5C illustrates leptin enhances TRPM7 current in leptin receptor expressing PC12 cells.
Leptin can regulate TRPM7 channel activity. Leptin exerts its action by binding to the long form of leptin receptors (LEPRb, ObRb), which is the only functional isoform of leptin receptor. The possible effect of leptin on TRPM7 channel activity was investigated, by using LEPRb expressing adrenal pheochromocytoma PC12 (PC12^LEPRb) cells as the cell model, because PC12 cells are oxygen-sensitive, express high level of TRPM7 and have been used widely in the studies of chemoreception. Non-selective cation current was recorded using amphotericin-B perforated-patch technique in the absence of extracellular and intracellular K^+ (replaced by Cs^+) and Mg^2+, after VDCC was blocked by nifedipine and Cl^− currents were inhibited by DIDS and niflumic acid. Voltage-ramp of −100 to +100 mV elicited an outward rectifying current that resembled TRPM7 current reported in other cell types. […] The leptin-induced current was not observed in PC12 cells transfected with a control plasmid (data not shown). The present invention provides the first evidence showing activation of leptin receptor is capable of enhancing TRPM7 activity, and it supports our hypothesis that leptin may enhance CB activity through regulation of TRPM7 activity.
Obesity is a leading cause of high cardiovascular morbidity and mortality. It is characterized by an increased leptin level, which has been implicated in increased sympathetic activity and the pathogenesis of hypertension. However, the mechanism by which leptin enhances sympathetic activity is unclear. Leptin receptors (LEPRs) are expressed in the carotid bodies, the most important arterial chemoreceptors for the cardiovascular-respiratory chemoreflex. Since leptin is known to regulate many different ion channels, we hypothesize that leptin may exert its effects through modulation of TRPM7 channel activity. To test this hypothesis, the inventors used LEPR (LEPRb) expressing pheochromocytoma (PC12^LEPRb) cells, which expresses high levels of TRPM7 channels, as the cell model. Non-selective cation channels were recorded under amphotericin-B perforated-patch techniques with K^+ replaced by Cs^+ in the presence of voltage-gated Ca^2+ channel and Cl^− channel blockers. Voltage-ramp from −100 to 100 mV activated an outward-rectifying current. Removal of extracellular divalent ions enhanced the inward current, consistent with the inward divalent ion selectivity of TRPM7.

C57BL/6J mice [5] = assay: telemetric blood pressure in mice, leptin-induced hypertension; assay type: in vivo, mouse
Experimental: Leptin signals in the CB to increase blood pressure. Male C57BL/6J mice, n=6 housed in a 12 hr light/dark cycle underwent telemetry implantation (Data Sciences) in the left femoral artery as we have described. […] After 4 day recovery mice were treated with vehicle (saline) regaining weight. On Day 17th of the protocol, carotid sinus nerve dissection (CSND, CB denervation) was performed bilaterally. After 1 week recovery, leptin and vehicle infusions were repeated. […] In contrast, CB denervation greatly modified cardiovascular effects of leptin. Indeed, in mice with intact carotid bodies leptin increased mean arterial pressure by 13 mm Hg during the day and by 16 mm Hg at night (FIG. 16A). […] Thus, leptin increases blood pressure acting in the CB.
FTY720 abolishes leptin-induced hypertension. There are multiple TRPM7 inhibitors available. We used a potent TRPM7 inhibitor FTY720 for several reasons. FTY720 is a novel immunomodulator and a structural homolog of shingosine-1-phosphate (S1P) blocking S1P effects in many diseases, including atherosclerosis, cancer, asthma, autoimmune diseases and acute lung injury. First, FTY270 has already been approved by FDA for multiple sclerosis (fingolimod). […] The experiment was performed in lean (24-26 g) C57BL/6J mice (n=5). Telemetry for continuous blood pressure recording was inserted. After 5 day recovery, mice were treated with leptin for 3 days as above. The pump was removed. After 7 day recovery, leptin was reinfused as above, but FTY720 was infused SC simultaneously at 0.1 mg/day (approximately 3 mg/kg/day).
Obesity leads to cardiovascular morbidity and mortality acting via multiple mechanisms including hypertension and obstructive sleep apnea. High levels of leptin have been associated with both conditions. The carotid bodies (CB) express leptin receptor (LepR), but the mechanism of leptin in CB is unknown. […] (CSND). In mice with intact CB, leptin increased mean arterial pressure by 13 mm Hg during the day and by 16 mm Hg at night (p=0.003 for the effect of leptin). […] Leptin receptor expression in carotid bodies of leptin receptor deficient db/db mice led to the same effect (n=6, p<0.05). […] Finally, the inventors tested the effect of a Trpm7 inhibitor on leptin-induced hypertension. The inventors performed blood pressure monitoring in male C57BL/6J mice (n=5˜9) at baseline, during leptin infusion with or without Trpm7 inhibitor, FTY720 (3 mg/kg/day, sc, n=5) for 24 hrs. […] The inventors conclude that leptin increases blood pressure acting in the CB via the Trpm7 channel.

[6] = mice; cited from earlier work
[7] = humans; cited from earlier work
C57BL/6J mice [8] = assay: minute ventilation and hypoxic ventilatory response (HVR) in awake lean mice; assay type: in vivo, mouse
Experimental: (§3) Leptin increases the HVR in lean mice. Minute ventilation (VE) was measured at normoxic conditions and during 3-5 min exposure to 10% O2 in awake lean male C57BL/6J mice, n=4, at baseline and during leptin administration (30 μg/day for 3 days via a subcutaneous osmotic pump). Serum leptin levels increased from 0.8±0.2 ng/ml to 33.2±1.9 ng/ml, which was similar to previously reported in DIO mice and obese humans, and then returned to the baseline. Mice decreased food intake and lost weight. Leptin increased VE at baseline as a result of an increase in the metabolic rate (FIG. 10). Leptin increased the HVR by greater than 60%.
Trpm7 inhibition prevents effects of leptin on the HVR. […] Male C57BL/6J mice (n=2) were treated with leptin for 3 days as described above. After 5 day recovery, leptin and a TRPM7 blocker NS8593 (10 mg/kg/day) were administered subcutaneously via an osmotic pump for 3 days. Mice reduced food intake and lost weight with leptin, regardless of the TRPM7 inhibitor.

Trpm7 promoter [9] = assay: Trpm7 promoter luciferase reporter in PC12^LEPRb cells; assay type: cell-based; details: leptin 1 ng/ml, 48 hr
Experimental: as §1, §2

Trpm7 promoter [10] = assay: Trpm7 promoter methylation by bisulfite sequencing in PC12^LEPRb cells; assay type: cell-based; details: leptin exposure
Experimental: as §1, §2

[11] = serum leptin levels during leptin administration; assay type: in vivo, mouse; details: leptin 30 μg/day for 3 days, subcutaneous osmotic pump
Experimental: as §3

[12] = NS8593 10 mg/kg/day subcutaneously via osmotic pump for 3 days with leptin, 10 mg/kg/day
[13] = leptin infusion for 3 days, intact carotid bodies

T1 sequence (Q925B3 whole entry): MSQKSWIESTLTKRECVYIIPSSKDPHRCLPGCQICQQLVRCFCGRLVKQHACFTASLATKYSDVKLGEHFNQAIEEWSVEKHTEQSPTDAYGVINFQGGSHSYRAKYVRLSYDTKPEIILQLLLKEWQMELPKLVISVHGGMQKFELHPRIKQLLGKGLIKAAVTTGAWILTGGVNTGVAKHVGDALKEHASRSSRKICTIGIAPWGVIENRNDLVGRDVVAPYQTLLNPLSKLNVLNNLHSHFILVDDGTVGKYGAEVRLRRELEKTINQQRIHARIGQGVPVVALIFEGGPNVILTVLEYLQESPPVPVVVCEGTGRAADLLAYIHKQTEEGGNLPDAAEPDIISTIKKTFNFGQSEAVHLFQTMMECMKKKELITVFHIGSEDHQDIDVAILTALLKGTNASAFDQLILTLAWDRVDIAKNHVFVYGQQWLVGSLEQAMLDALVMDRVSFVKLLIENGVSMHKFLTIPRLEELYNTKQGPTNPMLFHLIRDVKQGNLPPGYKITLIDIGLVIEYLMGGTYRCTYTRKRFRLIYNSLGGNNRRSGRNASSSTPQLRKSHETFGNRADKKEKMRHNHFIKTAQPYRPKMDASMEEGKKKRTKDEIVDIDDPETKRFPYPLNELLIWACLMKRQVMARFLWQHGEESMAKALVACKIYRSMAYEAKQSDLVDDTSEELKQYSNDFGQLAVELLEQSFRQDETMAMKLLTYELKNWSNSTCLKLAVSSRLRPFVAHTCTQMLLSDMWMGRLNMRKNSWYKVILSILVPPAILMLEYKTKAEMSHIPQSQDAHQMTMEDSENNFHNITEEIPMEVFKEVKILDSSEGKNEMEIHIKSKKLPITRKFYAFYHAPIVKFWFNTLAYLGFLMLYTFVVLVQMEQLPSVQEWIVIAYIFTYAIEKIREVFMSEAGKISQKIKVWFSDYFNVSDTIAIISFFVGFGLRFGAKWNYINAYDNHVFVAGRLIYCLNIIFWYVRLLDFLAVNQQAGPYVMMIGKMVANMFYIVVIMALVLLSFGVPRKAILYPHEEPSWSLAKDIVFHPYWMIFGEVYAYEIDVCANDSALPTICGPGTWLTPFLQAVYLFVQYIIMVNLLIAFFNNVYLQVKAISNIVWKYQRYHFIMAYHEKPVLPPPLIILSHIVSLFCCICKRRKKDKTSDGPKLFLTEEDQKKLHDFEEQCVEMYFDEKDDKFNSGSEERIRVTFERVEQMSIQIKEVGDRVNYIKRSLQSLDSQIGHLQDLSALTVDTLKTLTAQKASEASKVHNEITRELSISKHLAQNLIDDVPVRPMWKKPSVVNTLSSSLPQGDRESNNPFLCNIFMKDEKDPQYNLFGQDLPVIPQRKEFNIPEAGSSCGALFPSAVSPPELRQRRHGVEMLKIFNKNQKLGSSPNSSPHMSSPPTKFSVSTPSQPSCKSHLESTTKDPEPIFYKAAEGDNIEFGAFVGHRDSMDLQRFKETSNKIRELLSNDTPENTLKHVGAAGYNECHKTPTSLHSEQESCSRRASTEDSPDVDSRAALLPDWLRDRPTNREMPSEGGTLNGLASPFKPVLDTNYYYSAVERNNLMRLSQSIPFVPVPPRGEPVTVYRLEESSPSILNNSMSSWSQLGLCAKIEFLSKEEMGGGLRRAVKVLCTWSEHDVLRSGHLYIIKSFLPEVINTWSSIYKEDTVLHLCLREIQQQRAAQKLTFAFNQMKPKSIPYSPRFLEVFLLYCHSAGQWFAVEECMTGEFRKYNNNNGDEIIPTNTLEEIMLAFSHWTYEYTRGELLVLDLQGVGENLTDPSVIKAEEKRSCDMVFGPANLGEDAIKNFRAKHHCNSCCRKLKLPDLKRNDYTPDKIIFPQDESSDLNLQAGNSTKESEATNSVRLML
TRPM7 (Homo sapiens, UniProt Q96QT4), sequence (Q96QT4 whole entry, species assumed): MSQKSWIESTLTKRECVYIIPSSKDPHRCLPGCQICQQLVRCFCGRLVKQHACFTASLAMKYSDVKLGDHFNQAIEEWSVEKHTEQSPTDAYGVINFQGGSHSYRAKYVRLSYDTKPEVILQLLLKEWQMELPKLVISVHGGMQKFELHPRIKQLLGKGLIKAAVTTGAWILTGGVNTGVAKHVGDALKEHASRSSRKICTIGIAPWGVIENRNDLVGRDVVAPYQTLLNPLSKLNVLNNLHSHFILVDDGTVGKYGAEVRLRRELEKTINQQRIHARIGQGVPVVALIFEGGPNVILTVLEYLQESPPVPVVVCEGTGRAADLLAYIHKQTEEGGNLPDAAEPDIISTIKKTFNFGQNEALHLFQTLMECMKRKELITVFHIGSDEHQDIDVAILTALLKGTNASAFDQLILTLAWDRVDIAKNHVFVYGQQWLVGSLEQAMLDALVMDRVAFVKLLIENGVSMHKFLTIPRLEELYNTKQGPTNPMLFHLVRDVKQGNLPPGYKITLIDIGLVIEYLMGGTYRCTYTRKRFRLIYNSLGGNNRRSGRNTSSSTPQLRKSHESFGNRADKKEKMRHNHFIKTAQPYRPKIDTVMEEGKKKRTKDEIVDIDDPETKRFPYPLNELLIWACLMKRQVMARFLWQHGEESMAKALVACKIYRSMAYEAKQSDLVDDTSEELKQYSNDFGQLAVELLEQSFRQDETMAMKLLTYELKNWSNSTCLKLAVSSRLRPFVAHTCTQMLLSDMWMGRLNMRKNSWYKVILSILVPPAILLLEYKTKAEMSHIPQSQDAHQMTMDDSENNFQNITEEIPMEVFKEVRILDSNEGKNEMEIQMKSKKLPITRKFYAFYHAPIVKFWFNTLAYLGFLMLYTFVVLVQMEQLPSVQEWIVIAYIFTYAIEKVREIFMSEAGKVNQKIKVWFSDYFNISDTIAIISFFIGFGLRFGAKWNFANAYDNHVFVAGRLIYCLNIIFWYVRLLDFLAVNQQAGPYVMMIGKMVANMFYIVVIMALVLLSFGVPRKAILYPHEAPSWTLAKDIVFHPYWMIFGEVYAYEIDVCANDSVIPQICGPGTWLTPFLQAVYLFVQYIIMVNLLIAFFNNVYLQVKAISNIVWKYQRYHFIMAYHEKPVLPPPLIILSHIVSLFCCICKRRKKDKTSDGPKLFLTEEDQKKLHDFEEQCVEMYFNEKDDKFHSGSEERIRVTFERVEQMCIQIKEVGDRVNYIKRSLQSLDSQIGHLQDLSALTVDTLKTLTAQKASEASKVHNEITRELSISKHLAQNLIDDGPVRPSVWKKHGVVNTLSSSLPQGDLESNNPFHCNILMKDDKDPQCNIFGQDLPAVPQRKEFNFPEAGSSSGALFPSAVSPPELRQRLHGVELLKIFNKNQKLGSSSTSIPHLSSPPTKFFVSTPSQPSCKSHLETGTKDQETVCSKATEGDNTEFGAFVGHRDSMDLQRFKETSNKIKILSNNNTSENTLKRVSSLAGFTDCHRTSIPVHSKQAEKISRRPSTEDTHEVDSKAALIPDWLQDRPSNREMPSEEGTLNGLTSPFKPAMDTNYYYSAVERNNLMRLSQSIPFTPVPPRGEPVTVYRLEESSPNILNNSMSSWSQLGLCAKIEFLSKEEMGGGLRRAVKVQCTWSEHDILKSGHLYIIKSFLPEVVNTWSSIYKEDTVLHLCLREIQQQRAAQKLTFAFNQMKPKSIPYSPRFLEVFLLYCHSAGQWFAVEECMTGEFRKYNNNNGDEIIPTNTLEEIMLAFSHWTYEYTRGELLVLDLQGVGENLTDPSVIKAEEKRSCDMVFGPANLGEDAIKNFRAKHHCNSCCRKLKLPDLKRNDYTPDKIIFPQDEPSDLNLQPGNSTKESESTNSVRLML

In the case of `NCCOB(c1ccccc1)c1ccccc1` [2-APB, 2-aminoethoxydiphenylborane], the “leptin-enhanced hypoxia-induced CSN activity” value [1] is listed as “blocked”, the TRPM7 channel activity (TRPM7 [2]) is listed as “inhibited” and the “elevation of [Ca2+]i induced by hypoxia, NaCN and FCCP” value (rat glomus cells) is listed as “inhibited”.
For `Nc1ncn([C@H]2C[C@H](O)[C@@H](CO)O2)c(=O)n1` [5-aza-dC], the “Trpm7 mRNA level” value (TRPM7 [3]) was “increased”.
In the case of `CCCCCCCCc1ccc(CCC(N)(CO)CO)cc1` [FTY720, 2-amino-2-[2-(4-octylphenyl)ethyl]propane-1,3-diol], the “leptin-enhanced non-selective cation current” value (TRPM7 [4]) is reported as “significantly inhibited; also recorded: completely blocked”, the “naltriben-induced increase of the current” value (TRPM7 [4]) is reported as “abolished” and the “leptin-enhanced non-selective cation current” value (TRPM7 [4]; listed as FTY120) is reported as “almost completely abolished”. The leptin-induced hypertension (C57BL/6J mice [5]; FTY720 SC 0.1 mg/day (approximately 3 mg/kg/day) with leptin) was “completely abolished; also recorded: prevented”, the half-life [6] was 19 to 28 h and the half-life [7] was 170 h. The TRPM7 channel activity (TRPM7 [2]) was “inhibited”.
In the case of `Cl.c1ccc2c(c1)CCC[C@H]2Nc1nc2ccccc2[nH]1` [NS8593, N-[(1R)-1,2,3,4-Tetrahydro-1-naphthalenyl]-1H-Benzimidazol-2-aminehydrochloride], the “leptin-enhanced non-selective cation current” value (TRPM7 [4]) is reported as “completely blocked; also recorded: almost completely abolished”, the “naltriben-induced increase of the current” value (TRPM7 [4]) is reported as “abolished” and the basal ventilation (C57BL/6J mice [8]; NS8593 10 mg/kg/day subcutaneously via osmotic pump for 3 days with leptin) is reported as “without any effect”. The “leptin-induced hypoxic hyperventilation (VE during acute hypoxia)” value (C57BL/6J mice [8]; [12]) was “abolished; also recorded: prevented”, the “leptin-induced increase in the HVR” value (C57BL/6J mice [8]; [12]) was “abolished; also recorded: abolishing” and the TRPM7 channel activity (TRPM7 [2]) was “inhibited”.
For `COc1ccc(CCCOC(Cn2ccnc2)c2ccc(OC)cc2)cc1` (centres unmarked) [SKF96365], the “leptin-enhanced hypoxia-induced CSN activity” value [1] was “dampened; also recorded: blocked”.
In the case of `Cc1ccc(C(C)C)cc1O` [carvacrol], the TRPM7 channel activity (TRPM7 [2]) is given as “inhibited”.
In the case of `Oc1ccc2c3c1O[C@H]1c4oc5ccccc5c4C[C@@]4(O)[C@@H](C2)N(CC2CC2)CC[C@]314` [naltriben], the “outward rectifying non-selective cation (TRPM7) current” value (TRPM7 [4]; effect of TRPM7 agonist (50 μM elsewhere in the source), voltage-ramp −100 to +100 mV) is given as “significant augmentation; also recorded: significant increase” and the TRPM7 channel activity (TRPM7 [2]) is given as “activated”.
In the case of `CCCCCCCCCCCCC/C=C/[C@@H](O)[C@@H](N)CO` [sphingosine], the TRPM7 channel activity (TRPM7 [2]) is listed as “inhibited”.
In the case of leptin: an adipocyte-produced hormone, the “hypoxia-induced CSN activity” value [1] is reported as “significantly augmented”, the “hypoxia-induced CSN activity” value ([1]; listed as Leptin) is reported as “augments” and the “outward rectifying non-selective cation (TRPM7) current” value (TRPM7 [4]; effect of leptin (10-100 ng/ml elsewhere in the source)) is reported as “enhances; also recorded: concentration-dependent increase”. For the same molecule, the “Trpm7 promoter luciferase activity” value (Trpm7 promoter [9]) was “significantly increased”, the “Trpm7 mRNA level” value (TRPM7 [3]) was “increased; also recorded: significant increase” and the “methylation status of Trpm7 promoter” value (Trpm7 promoter [10]) was “CpG site-specific demethylation”. For the same molecule, the body weight (C57BL/6J mice [8]; leptin 30 μg/day for 3 days) was “lost weight”, the food intake (C57BL/6J mice [8]; leptin 30 μg/day for 3 days) was “decreased” and the “increase of the HVR” value (C57BL/6J mice [8]; leptin 30 μg/day for 3 days, subcutaneous osmotic pump, 10% O2) was “greater than 60%”. The “hypoxic ventilatory response (HVR), in words” value (C57BL/6J mice [8]; leptin infusion) was “increased”, the “minute ventilation (VE) at baseline” value (C57BL/6J mice [8]; leptin infusion, normoxic) was “increased” and the serum leptin levels [11] was 33.2 ± 1.9 ng/mL. For the same molecule, the heart rate (C57BL/6J mice [5]; leptin) was “increases”, the “mean arterial pressure, in words” value (C57BL/6J mice [5]; leptin) was “increases” and the “increase of mean arterial pressure at night” value (C57BL/6J mice [5]; [13]) was 16 mm Hg. For the same molecule, the “increase of mean arterial pressure during the day” value (C57BL/6J mice [5]; [13]) was 13 mm Hg.
